According to the NIST ThermoML archive (doi:10.1021/je020189p):
“And” between values parts separate entries of the source, which are not always exact repeats. Identical values can stand only once. ± gives the expanded uncertainty stated by the source.

Settings: Crystal

## [Br-].[Br-].[Br-].[Tb+3] [terbium tribromide]
904 K
  vapor or sublimation pressure: 4.79e-05 ± 1.4e-05 kPa
908 K
  vapor or sublimation pressure: 4.68e-05 ± 1.4e-05 kPa
912 K
  vapor or sublimation pressure: 3.8e-05 ± 1.2e-05 kPa
915 K
  vapor or sublimation pressure: 7.59e-05 ± 2.3e-05 kPa and 4.79e-05 ± 1.6e-05 kPa and 4.17e-05 ± 1.4e-05 kPa
917 K
  vapor or sublimation pressure: 8.13e-05 ± 2.5e-05 kPa
920 K
  vapor or sublimation pressure: 8.51e-05 ± 2.6e-05 kPa and 8.32e-05 ± 2.5e-05 kPa and 4.79e-05 ± 1.5e-05 kPa
921 K
  vapor or sublimation pressure: 7.59e-05 ± 2.3e-05 kPa
922 K
  vapor or sublimation pressure: 8.32e-05 ± 2.5e-05 kPa and 6.17e-05 ± 1.9e-05 kPa
924 K
  vapor or sublimation pressure: 0.000105 ± 3.2e-05 kPa
925 K
  vapor or sublimation pressure: 7.24e-05 ± 2.2e-05 kPa
928 K
  vapor or sublimation pressure: 9.55e-05 ± 3e-05 kPa
930 K
  vapor or sublimation pressure: 0.000132 ± 4e-05 kPa and 8.51e-05 ± 2.6e-05 kPa
931 K
  vapor or sublimation pressure: 0.00012 ± 3.6e-05 kPa
933 K
  vapor or sublimation pressure: 9.55e-05 ± 2.9e-05 kPa
934 K
  vapor or sublimation pressure: 8.51e-05 ± 2.5e-05 kPa and 0.00012 ± 3.6e-05 kPa
935 K
  vapor or sublimation pressure: 0.000151 ± 4.5e-05 kPa
937 K
  vapor or sublimation pressure: 0.000123 ± 4.2e-05 kPa and 0.000138 ± 4.6e-05 kPa
939 K
  vapor or sublimation pressure: 0.000151 ± 4.5e-05 kPa
940 K
  vapor or sublimation pressure: 0.000182 ± 5.5e-05 kPa [middle of 4 runs]
941 K
  vapor or sublimation pressure: 0.000115 ± 3.6e-05 kPa
943 K
  vapor or sublimation pressure: 0.000141 ± 4.2e-05 kPa
944 K
  vapor or sublimation pressure: 0.000209 ± 6.5e-05 kPa and 0.000186 ± 5.8e-05 kPa
945 K
  vapor or sublimation pressure: 0.000186 ± 5.9e-05 kPa
947 K
  vapor or sublimation pressure: 0.000214 ± 6.4e-05 kPa
948 K
  vapor or sublimation pressure: 0.00024 ± 7.3e-05 kPa and 0.000141 ± 4.5e-05 kPa
950 K
  vapor or sublimation pressure: 0.000182 ± 5.6e-05 kPa and 0.000166 ± 5.1e-05 kPa
954 K
  vapor or sublimation pressure: 0.000295 ± 9.1e-05 kPa
955 K
  vapor or sublimation pressure: 0.000191 ± 6e-05 kPa and 0.000269 ± 8.3e-05 kPa
956 K
  vapor or sublimation pressure: 0.000229 ± 7.1e-05 kPa
957 K
  vapor or sublimation pressure: 0.000331 ± 0.0001 kPa and 0.000229 ± 7e-05 kPa and 0.000275 ± 8.3e-05 kPa
958 K
  vapor or sublimation pressure: 0.000331 ± 0.0001 kPa and 0.000288 ± 8.7e-05 kPa
960 K
  vapor or sublimation pressure: 0.000363 ± 0.00011 kPa and 0.000316 ± 9.5e-05 kPa
962 K
  vapor or sublimation pressure: 0.000347 ± 0.0001 kPa [middle of 4 runs]
964 K
  vapor or sublimation pressure: 0.000288 ± 8.7e-05 kPa and 0.000389 ± 0.00012 kPa
968 K
  vapor or sublimation pressure: 0.000295 ± 8.9e-05 kPa
969 K
  vapor or sublimation pressure: 0.000363 ± 0.00011 kPa
970 K
  vapor or sublimation pressure: 0.000501 ± 0.00015 kPa
971 K
  vapor or sublimation pressure: 0.000355 ± 0.00012 kPa
973 K
  vapor or sublimation pressure: 0.000537 ± 0.00016 kPa and 0.000501 ± 0.00015 kPa
974 K
  vapor or sublimation pressure: 0.000575 ± 0.00017 kPa and 0.000355 ± 0.00011 kPa
975 K
  vapor or sublimation pressure: 0.000427 ± 0.00013 kPa
976 K
  vapor or sublimation pressure: 0.000501 ± 0.00015 kPa
977 K
  vapor or sublimation pressure: 0.000427 ± 0.00013 kPa and 0.000575 ± 0.00017 kPa
978 K
  vapor or sublimation pressure: 0.000617 ± 0.00019 kPa
980 K
  vapor or sublimation pressure: 0.000427 ± 0.00013 kPa
981 K
  vapor or sublimation pressure: 0.000661 ± 0.0002 kPa
983 K
  vapor or sublimation pressure: 0.000537 ± 0.00017 kPa and 0.000741 ± 0.00023 kPa
988 K
  vapor or sublimation pressure: 0.000871 ± 0.00027 kPa
989 K
  vapor or sublimation pressure: 0.000832 ± 0.00026 kPa
990 K
  vapor or sublimation pressure: 0.000912 ± 0.00028 kPa
991 K
  vapor or sublimation pressure: 0.001 ± 0.0003 kPa
992 K
  vapor or sublimation pressure: 0.00107 ± 0.00032 kPa
993 K
  vapor or sublimation pressure: 0.00107 ± 0.00032 kPa and 0.001 ± 0.0003 kPa
999 K
  vapor or sublimation pressure: 0.00115 ± 0.00035 kPa
1000 K
  vapor or sublimation pressure: 0.00126 ± 0.00038 kPa
1002 K
  vapor or sublimation pressure: 0.00132 ± 0.0004 kPa
1003 K
  vapor or sublimation pressure: 0.00138 ± 0.00042 kPa
1004 K
  vapor or sublimation pressure: 0.00148 ± 0.00045 kPa and 0.00158 ± 0.00048 kPa and 0.00129 ± 0.00039 kPa
1007 K
  vapor or sublimation pressure: 0.00155 ± 0.00047 kPa
1012 K
  vapor or sublimation pressure: 0.00174 ± 0.00052 kPa
1014 K
  vapor or sublimation pressure: 0.00166 ± 0.0005 kPa and 0.00209 ± 0.00063 kPa
1015 K
  vapor or sublimation pressure: 0.002 ± 0.00061 kPa and 0.00224 ± 0.00068 kPa
1019 K
  vapor or sublimation pressure: 0.00257 ± 0.00077 kPa
1020 K
  vapor or sublimation pressure: 0.00224 ± 0.00067 kPa
1024 K
  vapor or sublimation pressure: 0.0024 ± 0.00072 kPa
1025 K
  vapor or sublimation pressure: 0.00263 ± 0.00079 kPa and 0.00295 ± 0.00089 kPa
1030 K
  vapor or sublimation pressure: 0.00295 ± 0.00089 kPa
1032 K
  vapor or sublimation pressure: 0.00295 ± 0.00089 kPa
1035 K
  vapor or sublimation pressure: 0.00331 ± 0.001 kPa and 0.00417 ± 0.0013 kPa
1039 K
  vapor or sublimation pressure: 0.00398 ± 0.0012 kPa
1042 K
  vapor or sublimation pressure: 0.00537 ± 0.0016 kPa
1045 K
  vapor or sublimation pressure: 0.00468 ± 0.0014 kPa
1047 K
  vapor or sublimation pressure: 0.00575 ± 0.0017 kPa
1049 K
  vapor or sublimation pressure: 0.00575 ± 0.0017 kPa
1051 K
  vapor or sublimation pressure: 0.00676 ± 0.002 kPa
1054 K
  vapor or sublimation pressure: 0.00646 ± 0.0019 kPa
1058 K
  vapor or sublimation pressure: 0.00708 ± 0.0021 kPa
1059 K
  vapor or sublimation pressure: 0.00851 ± 0.0026 kPa and 0.00832 ± 0.0025 kPa
1064 K
  vapor or sublimation pressure: 0.00912 ± 0.0027 kPa
1067 K
  vapor or sublimation pressure: 0.01 ± 0.003 kPa
1068 K
  vapor or sublimation pressure: 0.011 ± 0.0033 kPa and 0.0115 ± 0.0035 kPa
1071 K
  vapor or sublimation pressure: 0.0112 ± 0.0034 kPa
1076 K
  vapor or sublimation pressure: 0.0141 ± 0.0043 kPa and 0.0129 ± 0.0039 kPa
1078 K
  vapor or sublimation pressure: 0.0141 ± 0.0043 kPa
1085 K
  vapor or sublimation pressure: 0.0182 ± 0.0055 kPa
1088 K
  vapor or sublimation pressure: 0.0174 ± 0.0052 kPa and 0.0158 ± 0.0048 kPa
1099 K
  vapor or sublimation pressure: 0.0229 ± 0.0069 kPa
1108 K
  vapor or sublimation pressure: 0.0288 ± 0.0087 kPa
